What all share (type): cell-based
The test system of assay [1] is JIMT-1. Briefly: Cell proliferation MTT assay. To be noted: JIMT-1, 7 days, MTT; read-out: 7 day IC50. The protocol:
(§1) Cells were seeded in 12-well plates at densities ranging from 10000-30000 cells/well and after 24 hours cells were treated with 10, 40 and 100 nM THZ1 in triplicate. After 7 days the cells were imaged using Zeiss Axiovert 200 microscope using a 20× objective lens. Additionally, cells were plated in 96-well plates at a density of 2000 cells/well and after 24 hours treated with 0-10 μM THZ1. After 2 and 7 days the growth of the cells was measured by MTT assay.
(§2) All results were presented as mean±standard deviation of 4-8 parallel assessments. Similar results were obtained from a minimum of two independent experiments. […] Densitometry was performed on duplicate immunoblots using ImageLab software (Biorad) and normalized to tubulin loading controls and then correlated with the THZ1 IC50 values of each cell line. Statistical analyses were performed using SPSS 18.0 (SPSS Inc). Bi-variant scatter graphs and Spearman rank analyses were performed to evaluate associations between protein levels, mRNA and response to inhibition. IC50 values were calculated for MTT assays using CompuSyn software.
(Tetrazolium assays rely on reduction of a dye to a coloured formazan, in cell work by metabolically active cells.)

For assay [2], the system named is MCF7. Nature of the assay: Cell proliferation MTT assay. The note with it: MCF7, 7 days, read-out: 7 day IC50. As for the experimental part:
as §1, §2

Assay [3] deals with MDA-MB-231. Briefly: Cell proliferation MTT assay. To be noted: MDA-MB-231, 7 days, read-out: 7 day IC50. As for the experimental part: as §1, §2
Assay [4] concerns MDA-MB-361. Nature of the assay: Cell proliferation MTT assay. To be noted: MDA-MB-361, 7 days, read-out: 7 day IC50. As for the experimental part:
as §1, §2

Assay [5] deals with SKBR3. Briefly: Cell proliferation MTT assay. The note with it: SKBR3, 7 days, read-out: 7 day IC50. As for the experimental part: as §1, §2
For assay [6], the system named is T47D. Nature of the assay: Cell proliferation MTT assay. The note with it: 7 days, read-out: 7 day IC50. The protocol:
as §1, §2

In assay [7] the test system is ZR-75-1. Nature of the assay: Cell proliferation MTT assay. The note with it: ZR-75-1, 7 days, read-out: 7 day IC50. The protocol:
as §1, §2

In assay [8] the test system is panel of breast cancer cell lines. Nature of the assay: Cell proliferation MTT assay, cell line panel. To be noted: 7 days. As for the experimental part:
as §1, §2
To investigate the effect of CDK7 inhibition in a time and dose dependent manner, an extended panel of 11 breast cancer cell lines were screened for response to THZ1 after 2 and 7 days of treatment.

On to `CC(C)c1cnn2c(NCc3ccccc3)cc(NCCCCCCN)nc12` [BS-181], for which the IC50 (commonly the concentration at which inhibition is half-maximal) in assay [1] came to 11.1 µM; in assay [2], 32.1 µM; in assay [3], 39.5 µM; in assay [4], 4.9 µM; in assay [5], 8.9 µM; in assay [6] it was 8.5 µM. The IC50 in assay [7] amounted to 19.6 µM. Besides, in assay [8] (all tested breast cancer cell lines), the growth inhibition result is given as “inhibited the growth of all tested breast cancer cell lines”. Besides, the “efficiency of growth inhibition compared with THZ1” value in assay [8] (cell line panel) is “much less efficient than THZ1”.

These data come from patent US10913983B2, “Sensitivity markers and uses for CDK7 inhibitors in breast cancers” (UNIVERSITY OF SOUTH CAROLINA, priority 2017, dated 2021).
